The nature of test [1]: Ability to block U-46,619 (0.3 uM)-induced platelet aggregation. It counts as functional.
The nature of test [2]: Ability to block collagen (3 ug/mL)-induced platelet aggregation. It counts as functional.
Test [3] is described as follows: Ability to block thrombin (0.15 nM)-induced platelet aggregation. Format: functional.
The nature of test [4]: Ability to block TRAP-6 (2 uM)-induced platelet aggregation. It counts as functional.
For test [5], the target named is T1, Proteinase-activated receptor 1 (Homo sapiens, UniProt P25116).
T1 sequence (P25116 whole entry): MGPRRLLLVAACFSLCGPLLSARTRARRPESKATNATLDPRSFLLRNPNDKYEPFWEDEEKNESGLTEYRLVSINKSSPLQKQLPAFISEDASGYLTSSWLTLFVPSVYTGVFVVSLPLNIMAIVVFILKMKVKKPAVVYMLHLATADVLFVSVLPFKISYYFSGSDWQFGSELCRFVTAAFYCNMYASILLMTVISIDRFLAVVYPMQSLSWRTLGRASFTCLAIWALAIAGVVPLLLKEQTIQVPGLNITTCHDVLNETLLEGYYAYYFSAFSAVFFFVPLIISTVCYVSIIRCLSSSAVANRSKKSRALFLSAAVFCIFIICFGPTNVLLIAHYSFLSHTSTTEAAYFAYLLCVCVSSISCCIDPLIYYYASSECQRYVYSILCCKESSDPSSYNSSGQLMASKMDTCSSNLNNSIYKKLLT
Kind of test: Ability to inhibit the binding of [3H]S-(p-F-Phe)-homoarginine-L-homoarginine-KY-NH2 to thrombin receptor on the membranes of CHRF-288-11 cells.

Test [6] can be described thus: Ability to block U-46,619 (0.3 uM)-induced platelet aggregation; inactive at a concentration of 50 uM. It counts as functional.

The IC50 is the point on the concentration scale where inhibition reaches its midpoint.

SMILES strings stand for the structures.

For the molecule `NCCCNC(=O)[C@H](Cc1cnc[nH]1)NC(=O)[C@H](Cc1ccc(Cl)cc1)NC(=O)Nc1ccc2c(CN3CCCC3)cn(Cc3c(Cl)cccc3Cl)c2c1`, the IC50 in test [1] was determined as 18.6 µM; in test [2] it was 30 µM; in test [3], 410 nM; in test [4], 70 nM; in test [5] it was 130 nM.
The like results for `NCC[C@H](NC(=O)[C@H](Cc1ccc(F)c(F)c1)NC(=O)Nc1ccc2c(CN3CCCC3)cn(Cc3c(Cl)cccc3Cl)c2c1)C(=O)NCCc1ccccn1` were, in that order, 10.3 µM, 6.6 µM, 880 nM, 150 nM and 500 nM.
Turning to `NCCC[C@H](NC(=O)[C@H](Cc1ccc(F)c(F)c1)NC(=O)Nc1ccc2c(CN3CCCC3)cn(Cc3c(Cl)cccc3Cl)c2c1)C(=O)NCCN1CCCC1`, the half-maximal inhibitory concentration (IC50) in test [1] was 22 µM; in test [2] it was 16 µM; in test [3], 250 nM; in test [4], 60 nM; in test [5], 310 nM.
On to `NCC[C@H](NC(=O)[C@H](Cc1ccc(F)c(F)c1)NC(=O)Nc1ccc2c(CN3CCCC3)cn(Cc3c(Cl)cccc3Cl)c2c1)C(=O)NCCc1ccccc1`, for which the IC50 worked out at 7.6 µM in test [1]; 3 µM in test [2]; 810 nM in test [3]; 160 nM in test [4]; 120 nM in test [5].
Regarding `CCNCCNC(=O)[C@H](CCN)NC(=O)[C@H](Cc1ccc(F)c(F)c1)NC(=O)Nc1ccc2c(CN3CCCC3)cn(Cc3c(Cl)cccc3Cl)c2c1`, the concentration for half-maximal inhibition (IC50) in test [1] was found to be 13.7 µM; in test [3] it was 410 nM; in test [4] it was 130 nM; in test [5], 90 nM.
On to `NCC[C@H](NC(=O)[C@H](Cc1ccc(F)c(F)c1)NC(=O)Nc1cccc2c(CN3CCCC3)cn(Cc3c(Cl)cccc3Cl)c12)C(=O)NCCN1CCCC1`, for which the IC50 in test [3] was 23000 nM; in test [6] it was “Not Active”; in test [4], 4300 nM; in test [5], 22000 nM.
The like results for `NCCNC(=O)[C@H](Cc1ccncc1)NC(=O)[C@H](Cc1ccccc1F)NC(=O)Nc1ccc2c(CN3CCCC3)cn(Cc3c(Cl)cccc3Cl)c2c1` were, in that order, 130 nM, “Not Active”, 50 nM and 70 nM.
As for `NCCNC(=O)[C@H](Cc1cccs1)NC(=O)[C@H](Cc1ccc(F)c(F)c1)NC(=O)Nc1ccc2c(CN3CCCC3)cn(Cc3c(Cl)cccc3Cl)c2c1`, the IC50 in test [2] was 16.5 µM; in test [3], 270 nM; in test [6] it was “Not Active”; in test [4], 80 nM; in test [5], 35 nM.
For `NCC[C@H](NC(=O)[C@H](Cc1ccc(F)c(F)c1)NC(=O)Nc1ccc2c(CN3CCCC3)cn(Cc3c(Cl)cccc3Cl)c2c1)C(=O)NCc1ccccc1`, the IC50 is 340 nM in test [3], “Not Active” in test [6], 160 nM in test [4] and 440 nM in test [5].
As for `NCC[C@H](NC(=O)[C@H](Cc1ccc(F)c(F)c1)NC(=O)Nc1cccc2c1c(CN1CCCC1)cn2Cc1c(Cl)cccc1Cl)C(=O)NCCN1CCCC1`, the half-maximal inhibitory concentration (IC50) in test [3] is 40000 nM; in test [6], “Not Active”; in test [4], 16000 nM.
In the case of `NCCCNC(=O)[C@H](CCN)NC(=O)[C@H](Cc1ccc(Cl)cc1)NC(=O)Nc1ccc2c(CN3CCCC3)cn(Cc3c(Cl)cccc3Cl)c2c1`, the IC50 in test [1] worked out at 17.3 µM; in test [2], 11 µM; in test [3], 200 nM; in test [4], 50 nM; in test [5], 430 nM.
The corresponding values for `NCC[C@H](NC(=O)[C@H](Cc1ccc(F)c(F)c1)NC(=O)Nc1ccc2c(CN3CCCC3)cn(Cc3c(Cl)cccc3Cl)c2c1)C(=O)NCc1ccccn1` are 19.8 µM, 8.4 µM, 1100 nM, 190 nM and 330 nM.
The like results for `CSC[C@H](NC(=O)[C@H](Cc1ccc(F)c(F)c1)NC(=O)Nc1ccc2c(CN3CCCC3)cn(Cc3c(Cl)cccc3Cl)c2c1)C(=O)NCCN` were, in that order, 18.6 µM, 27 µM, 1300 nM, 60 nM and 60 nM.
For `NCC[C@H](NC(=O)[C@H](Cc1ccc(F)c(F)c1)NC(=O)Nc1ccc2c(CN3CCCC3)cn(Cc3c(Cl)cccc3Cl)c2c1)C(=O)NCCN1CCCC1`, the figures for the IC50 in test [3], in test [6] and in test [4] were 460 nM, “Not Active” and 50 nM, respectively.
Consider `NCC[C@H](NC(=O)[C@H](Cc1ccc(F)c(F)c1)NC(=O)Nc1ccc2c(CN3CCCC3)cn(Cc3c(Cl)cccc3Cl)c2c1)C(=O)NCc1ccco1`, for which the half-maximal inhibitory concentration (IC50) in test [2] was 7.9 µM; in test [3], 780 nM; in test [6] it was “Not Active”; in test [4] it was 70 nM; in test [5], 160 nM.
In the case of `NCC[C@H](NC(=O)[C@H](Cc1ccc(F)c(F)c1)NC(=O)Nc1ccc2c(CN3CCCC3)cn(Cc3c(Cl)cccc3Cl)c2c1)C(=O)NCc1cccs1`, the IC50 was 7 µM in test [2]; 800 nM in test [3]; “Not Active” in test [6]; 160 nM in test [4]; 230 nM in test [5].
In the case of `CSCC[C@H](NC(=O)[C@H](Cc1ccc(F)c(F)c1)NC(=O)Nc1ccc2c(CN3CCCC3)cn(Cc3c(Cl)cccc3Cl)c2c1)C(=O)NCCN`, the IC50 in test [1] came to 24 µM; in test [2], 4.7 µM; in test [3], 220 nM; in test [4] it was 70 nM; in test [5] it was 25 nM.
Consider `COc1ccc(CNC(=O)[C@H](CCN)NC(=O)[C@H](Cc2ccc(F)c(F)c2)NC(=O)Nc2ccc3c(CN4CCCC4)cn(Cc4c(Cl)cccc4Cl)c3c2)cc1`, for which the IC50 in test [1] was 6.4 µM; in test [2] it was 6.7 µM; in test [3] it was 700 nM; in test [4], 100 nM; in test [5], 480 nM.

The values are drawn from ChEMBL document CHEMBL1146614, “High-affinity thrombin receptor (PAR-1) ligands: a new generation of indole-based peptide mimetic antagonists with a basic amine at the C-terminus” (Bioorg Med Chem Lett, 2003).
